Paper PMC9004346, “Development of small cyclic peptides targeting the CK2α/β interface” (Chemical Communications (Cambridge, England), 2022)
*1 amine or outer side, *2 acyl side, *3 side chain or, on linkers, in order; H or OH if unused. Where a SMILES comes first, the peptide text is derived from it. Bridges are numbered along the chain shown (N, C = ends). [ ]: non-standard residue; d: D form. Trp(2-yl) = O=C([C@H](Cc1c([*:3])[nH]c2ccccc12)N[*:1])[*:2]; hCys = N[C@@H](CCS)C(=O)O

Biological target: T1, CK2α (Homo sapiens, UniProt P68400, K74A/K75A/K76A/R21S)
T1 construct: CK2α_KA (residues 2-329) contained four mutations; made in house
T1 sequence (P68400 2-329 R21S/K74A/K75A/K76A): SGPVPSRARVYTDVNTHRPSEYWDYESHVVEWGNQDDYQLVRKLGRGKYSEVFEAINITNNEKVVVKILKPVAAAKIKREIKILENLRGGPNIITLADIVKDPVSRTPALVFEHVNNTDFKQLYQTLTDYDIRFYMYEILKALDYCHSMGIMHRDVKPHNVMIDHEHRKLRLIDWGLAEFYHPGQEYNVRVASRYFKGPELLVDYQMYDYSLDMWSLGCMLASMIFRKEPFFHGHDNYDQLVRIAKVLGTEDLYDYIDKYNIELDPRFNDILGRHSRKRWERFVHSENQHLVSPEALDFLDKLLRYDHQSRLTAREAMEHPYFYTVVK
Assay: Isothermal titration calorimetry (ITC) binding to CK2α
Settings: 25 °C, CK2α_KA
Text: Ligand efficiency (LE) is a commonly used statistic to evaluate and compare the effectiveness of drug candidates.17 Mathematically, it is related to the IC50 of the molecule, as well as the number of heavy atoms (non-hydrogen) it contains, as detailed in Equation 1. 18
Equation 1 Mathematical expression for the ligand efficiencies of compounds.18 pIC50 = -log10(IC50) LE = Number of non ‒ H atoms […]
greatest activity with the fewest heavy atoms.
1.5 Biophysical experiments
1.5.1 Protein expression and purification
Three constructs of CK2α were used in this study. For FP assays, CK2α_WT was used (residues 2-329).
For ITC CK2α_KA construct was used whilst CK2α_FP10 was used for crystallisation purposes. CK2α_KA (residues 2-329) contained four mutations designed to aid crystallisation and solubility by reducing the overall charge of the protein; R21S, K74A, K75A and K76A. CK2α_FP 10 contained one mutation (R21S) and an N-terminal extension […] aimed at mimicking a substrate peptide for CK2α. These constructs were cloned, expressed, and purified as previously described.19 1.5.2 Fluorescence polarisation
IC50’s were determined using a PHERAstar FS plate reader (BMG labtech). The fluorescein probe was measured using 485 nm excitation and 530 nm emission. The fluorescein probe was covalently linked to the N-terminus of the linear CK2β-based peptide RLYGFKIHPMAYQLQ. IC50’s were measured using 500, 167, 16.7, 8.33 and 0 μM of the test peptide at a constant concentration of DMSO. P7C8, P8C9, P+L and P+ were tested at concentrations of 50.0, 16.7, 1.67, 0.833 and 0 μM due to their higher potencies. The experiments were performed in a Corning 384-well plate with final concentrations of 571 nM CK2α_WT (residues 2-329), 7.4 μM fluorescent peptide (fluorescein probe was covalently linked to the N-terminus of the linear CK2β-based peptide RLYGFKIHPMAYQLQ), 200 mM NaCl, 40mM TRIS, 20 mM MgCl2 and pH 7.5. The plates were read after a 45 min incubation period.
1.5.3 Isothermal titration calorimetry
All ITC experiments were performed at 25 °C using a MicroCal ITC-200 (GE Healthcare). […]

Kd: 750 nM
Structure (SMILES): CC(=O)N[C@H]1CCSc2[nH]c3ccccc3c2C[C@@H](C(N)=O)NC(=O)[C@H](CCCCN)NC(=O)[C@H](Cc2ccccc2)NC(=O)CNC(=O)[C@H](Cc2ccc(O)cc2)NC(=O)[C@H](CC(C)C)NC(=O)[C@H](CCCNC(=N)N)NC1=O [Peptide P8C9, (hC)C9RLYGFKWC9] (Ac-[hCys]RLYGFK[Trp(2-yl)]-NH2; thioether 1-8)
